Results: patent publication US20240368150A1 (Hoffmann-La Roche Inc., priority 2021, published 2024)
Like-named read-outs stand apart in the source and are kept apart here.

Legend:
primary human T-cells [1] = tested on: primary human T-cells
primary human T-cells [2] = experiment: Proliferation assay after 5 days (CellTiter-Glo, CD3 stimulation; PBS counter screen); format: cell-based; conditions: Homo sapiens, T-cell, 120 h, CD3 stimulation; for Emax: 5 days, normalized to reference compound A1 as stimulator control = 100%, DMSO neutral control, read-out: Emax proliferation (% activation); for EC50: primary human T-cells, CellTiter-Glo after 5 days, EC50 of fitted sigmoidal curve, read-out: Tcell Proliferation CD3 EC50
Summary of the method: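 Primary human T-cells, with or without CD3 stimulation, exposed to compounds for 5 days; cell number read as ATP by CellTiter-Glo 2.0 luminescence after 45 min equilibration and 15 min reagent incubation at room temperature. Compounds activating unstimulated cells or reducing viability were flagged.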

| SMILES | EC50 (primary human T-cells [1]) | Emax (primary human T-cells [2]) | EC50 (primary human T-cells [2]) |
| --- | --- | --- | --- |
| CC(C)(CO)c1nnc(-c2cc3c(cc2F)S(=O)(=O)C[C@H](N)C(=O)N3Cc2ccc(C#N)cc2)o1 [Example 188, 4-[[(3R)-3-amino-8-fluoro-7-[5-(2-hydroxy-1,1-dimethyl-ethyl)-1,3,4-oxadiazol-2-yl]-1,1,4-trioxo-2,3-dihydro-1λ^6,5-benzothiazepin-5-yl]methyl]benzonitrile] | 3.18 µM | 29% | > 10 µM |
| CC(C)(C)c1nnc(-c2cc3c(cc2F)S(=O)(=O)C[C@H](N)C(=O)N3Cc2ccc(OCCCCCCCCCCCNC(=O)CCC3=CC4=Cc5ccc(-c6ccc[nH]6)n5[B-](F)(F)[N+]4=C3)cc2)o1 [Example 189, 3-[2,2-difluoro-12-(1H-pyrrol-2-yl)-1-aza-3-azonia-2-boranuidatricyclo[7.3.0.03,7]dodeca-3,5,7,9,11-pentaen-5-yl]-N-[11-[4-[[(3R)-3-amino-7-(5-tert-butyl-1,3,4-oxadiazol-2-yl)-8-fluoro-1,1,4-trioxo-2,3-dihydro-1λ^6,5-benzothiazepin-5-yl]methyl]phenoxy]undecyl]propanamide] | > 2.73 µM | 134% | 0.68 µM |
| C[C@@H]1[C@H](N)C(=O)N(Cc2ccc(Cl)cc2)c2cc(-c3nnc(C(C)(C)C)o3)c(F)cc2S1(=O)=O [Example 190, (2R,3R)-3-amino-7-(5-tert-butyl-1,3,4-oxadiazol-2-yl)-5-[(4-chlorophenyl)methyl]-8-fluoro-2-methyl-1,1-dioxo-2,3-dihydro-1λ^6,5-benzothiazepin-4-one] | 1.64 µM | 114% | 1.16 µM |
| N[C@H]1CS(=O)(=O)c2cc(F)c(-c3nnc(N4CCC4)o3)cc2N(Cc2ccc(Cl)cc2)C1=O [Example 191, (3R)-3-amino-7-[5-(azetidin-1-yl)-1,3,4-oxadiazol-2-yl]-5-[(4-chlorophenyl)methyl]-8-fluoro-1,1-dioxo-2,3-dihydro-1λ^6,5-benzothiazepin-4-one] | 11.4 µM | 184% | 1.28 µM |
| CC(C)(C#N)Nc1nc(-c2cc3c(cc2F)S(=O)(=O)C[C@H](N)C(=O)N3Cc2ccc(Cl)cc2)no1 [Example 199, 2-methyl-2-[[3-[(3R)-3-amino-5-[(4-chlorophenyl)methyl]-8-fluoro-1,1,4-trioxo-2,3-dihydro-1λ^6,5-benzothiazepin-7-yl]-1,2,4-oxadiazol-5-yl]amino]propanenitrile] | > 10 µM | 71% | 2.96 µM |
| N[C@H]1CS(=O)(=O)c2cc(F)c(-c3noc(N4[C@@H]5CC[C@H]4COC5)n3)cc2N(Cc2ccc(Cl)cc2)C1=O [Example 200, (3R)-3-amino-5-[(4-chlorophenyl)methyl]-8-fluoro-1,1-dioxo-7-[5-[(1R,5S)-3-oxa-8-azabicyclo[3.2.1]octan-8-yl]-1,2,4-oxadiazol-3-yl]-2,3-dihydro-1λ^6,5-benzothiazepin-4-one] | 0.142 µM | 88% | 0.0379 µM |
| NC(CNc1nc(-c2cc3c(cc2F)S(=O)(=O)C[C@H](N)C(=O)N3Cc2ccc(Cl)cc2)no1)C(F)(F)F (stereo partly drawn) [Example 202, (3R)-3-amino-7-[5-[(2-amino-3,3,3-trifluoro-propyl)amino]-1,2,4-oxadiazol-3-yl]-5-[(4-chlorophenyl)methyl]-8-fluoro-1,1-dioxo-2,3-dihydro-1λ^6,5-benzothiazepin-4-one] | 1.3 µM | 57% | 1.43 µM |
| C#CCOCCOCCCC(C)(C)Nc1nc(-c2cc3c(cc2F)S(=O)(=O)C[C@H](N)C(=O)N3Cc2ccc(Cl)cc2)no1 [Example 203, (3R)-3-amino-5-[(4-chlorophenyl)methyl]-7-[5-[[1,1-dimethyl-4-(2-prop-2-ynoxyethoxy)butyl]amino]-1,2,4-oxadiazol-3-yl]-8-fluoro-1,1-dioxo-2,3-dihydro-1λ^6,5-benzothiazepin-4-one] | 1.58 µM | 99% | 0.233 µM |
| CCc1coc(-c2cc3c(cc2F)S(=O)(=O)C[C@H](N)C(=O)N3Cc2ccc(Cl)cc2)n1 [Example 216, (3R)-3-amino-5-[(4-chlorophenyl)methyl]-7-(4-ethyloxazol-2-yl)-8-fluoro-1,1-dioxo-2,3-dihydro-1λ^6,5-benzothiazepin-4-one] | 16.4 µM | 41% | > 20 µM |
| Cc1c(F)c(-c2nnc(C(C)(C)C)o2)cc2c1S(=O)(=O)C[C@H](N)C(=O)N2Cc1ccc(Cl)cc1 [Example 218, (3R)-3-amino-7-(5-tert-butyl-1,3,4-oxadiazol-2-yl)-5-[(4-chlorophenyl)methyl]-8-fluoro-9-methyl-1,1-dioxo-2,3-dihydro-1λ^6,5-benzothiazepin-4-one] | 7.86 µM | 80% | 3.89 µM |
| CC(C)(C)c1nnc(-c2cc3c(cc2F)S(=O)(=O)C[C@H](N)C(=O)N3Cc2cccc(Cl)c2)o1 [Example 219, (3R)-3-amino-7-(5-tert-butyl-1,3,4-oxadiazol-2-yl)-5-[(3-chlorophenyl)methyl]-8-fluoro-1,1-dioxo-2,3-dihydro-1λ^6,5-benzothiazepin-4-one] | 3.21 µM | 105% | 2.74 µM |

More lines, main results first:

| EC50 (primary human T-cells [1]) | SMILES | Emax (primary human T-cells [2]) | EC50 (primary human T-cells [2]) |
| --- | --- | --- | --- |
| 0.125 µM | N[C@H]1CS(=O)(=O)c2cc(F)c(-c3noc(N4CCOC5CC54)n3)cc2N(Cc2ccc(Cl)cc2)C1=O (stereo partly drawn) [Example 192, (3R)-3-amino-5-[(4-chlorophenyl)methyl]-8-fluoro-7-[5-(2-oxa-5-azabicyclo[4.1.0]heptan-5-yl)-1,2,4-oxadiazol-3-yl]-1,1-dioxo-2,3-dihydro-1λ^6,5-benzothiazepin-4-one] | 110% | 0.1 µM |
| 0.0387 µM | N[C@H]1CS(=O)(=O)c2cc(F)c(-c3noc(N4CCOC(C(F)(F)F)C4)n3)cc2N(Cc2ccc(Cl)cc2)C1=O (stereo partly drawn) [Example 193, (3R)-3-amino-5-[(4-chlorophenyl)methyl]-8-fluoro-1,1-dioxo-7-[5-[2-(trifluoromethyl)morpholin-4-yl]-1,2,4-oxadiazol-3-yl]-2,3-dihydro-1λ^6,5-benzothiazepin-4-one] | 108% | 0.0213 µM |
| 0.0407 µM | N[C@H]1CS(=O)(=O)c2cc(F)c(-c3noc(N4CCOC5(CC5)C4)n3)cc2N(Cc2ccc(Cl)cc2)C1=O [Example 194, (3R)-3-amino-5-[(4-chlorophenyl)methyl]-8-fluoro-7-[5-(4-oxa-7-azaspiro[2.5]octan-7-yl)-1,2,4-oxadiazol-3-yl]-1,1-dioxo-2,3-dihydro-1λ^6,5-benzothiazepin-4-one] | 79% | 0.0152 µM |
| 0.167 µM | N[C@H]1CS(=O)(=O)c2cc(F)c(-c3noc(NC4CCC4)n3)cc2N(Cc2ccc(Cl)cc2)C1=O [Example 195, (3R)-3-amino-5-[(4-chlorophenyl)methyl]-7-[5-(cyclobutylamino)-1,2,4-oxadiazol-3-yl]-8-fluoro-1,1-dioxo-2,3-dihydro-1λ^6,5-benzothiazepin-4-one] | 108% | 0.105 µM |
| 0.0361 µM | N[C@H]1CS(=O)(=O)c2cc(F)c(-c3noc(N4CCOCC4)n3)cc2N(Cc2ccc(Cl)cc2)C1=O [Example 196, (3R)-3-amino-5-[(4-chlorophenyl)methyl]-8-fluoro-7-(5-morpholino-1,2,4-oxadiazol-3-yl)-1,1-dioxo-2,3-dihydro-1λ^6,5-benzothiazepin-4-one] | 81% | 0.0166 µM |
| 0.226 µM | N[C@H]1CS(=O)(=O)c2cc(F)c(-c3noc(N4CCC(F)(F)CC4)n3)cc2N(Cc2ccc(Cl)cc2)C1=O [Example 197, (3R)-3-amino-5-[(4-chlorophenyl)methyl]-7-[5-(4,4-difluoro-1-piperidyl)-1,2,4-oxadiazol-3-yl]-8-fluoro-1,1-dioxo-2,3-dihydro-1λ^6,5-benzothiazepin-4-one] | 112% | 0.118 µM |
| 0.562 µM | N[C@H]1CS(=O)(=O)c2cc(F)c(-c3noc(N4CCNC(C(F)(F)F)C4)n3)cc2N(Cc2ccc(Cl)cc2)C1=O (stereo partly drawn) [Example 198, (3R)-3-amino-5-[(4-chlorophenyl)methyl]-8-fluoro-1,1-dioxo-7-[5-[3-(trifluoromethyl)piperazin-1-yl]-1,2,4-oxadiazol-3-yl]-2,3-dihydro-1λ^6,5-benzothiazepin-4-one] | 112% | 0.332 µM |
| 0.828 µM | CC1(Nc2nc(-c3cc4c(cc3F)S(=O)(=O)C[C@H](N)C(=O)N4Cc3ccc(Cl)cc3)no2)CC(F)(F)C1 [Example 201, (3R)-3-amino-5-[(4-chlorophenyl)methyl]-7-[5-[(3,3-difluoro-1-methyl-cyclobutyl)amino]-1,2,4-oxadiazol-3-yl]-8-fluoro-1,1-dioxo-2,3-dihydro-1λ^6,5-benzothiazepin-4-one] | 156% | 0.229 µM |
| 0.0785 µM | N[C@H]1CS(=O)(=O)c2cc(F)c(-c3noc(N4CCOC(F)(F)C4)n3)cc2N(Cc2ccc(Cl)cc2)C1=O [Example 204, (3R)-3-amino-5-[(4-chlorophenyl)methyl]-7-[5-(2,2-difluoromorpholin-4-yl)-1,2,4-oxadiazol-3-yl]-8-fluoro-1,1-dioxo-2,3-dihydro-1λ^6,5-benzothiazepin-4-one] | 154% | 0.0348 µM |
| 0.542 µM | N[C@H]1CS(=O)(=O)c2cc(F)c(-c3noc(NC4CC(F)(F)C4)n3)cc2N(Cc2ccc(Cl)cc2)C1=O [Example 206] | 168% | 0.157 µM |
| 0.78 µM | N[C@H]1CS(=O)(=O)c2ccc(-c3nnc(CC(F)(F)F)o3)c(F)c2N(Cc2ccc(Cl)cc2)C1=O [Example 217, (3R)-3-amino-5-[(4-chlorophenyl)methyl]-6-fluoro-1,1-dioxo-7-[5-(2,2,2-trifluoroethyl)-1,3,4-oxadiazol-2-yl]-2,3-dihydro-1λ^6,5-benzothiazepin-4-one] | 221% | 2.11 µM |
